{
  "source": "patent US10772847B1",
  "about": "“Combinational fendiline formulations and uses thereof” (UNIVERSITY OF SOUTH FLORIDA, priority 2016, dated 2020)",
  "key": {"ADAM10": {"tested_on": "ADAM10", "conditions": "shown recently (introduction); cited from earlier work"}, "P-Aurora ABC": {"tested_on": "P-Aurora ABC", "experiment": "Fluorescent microscopy of p-Aurora ABC in CD18 cells", "format": "cell-based", "conditions": "about 24 hours of treatment, FIGS. 26A-26C", "procedure": "FIGS. 26A-26C show fluorescent microscopic images of CD18 cells treated with fendiline or Tivantinib as compared to untreated after about 24 hours of treatment and staining with antibodies against p-Aurora ABC or a-tubulin and counterstained with Hoechst."}, "cancer cells": {"tested_on": "cancer cells", "conditions": "shown earlier (introduction); cited from earlier work"}},
  "data": [
    {"smiles": "CC(NCCC(c1ccccc1)c1ccccc1)c1ccccc1", "note": "(stereo not drawn) [fendiline]", "values": [
      {"measurement": "ADAM10 inhibition", "setting": "ADAM10", "value": "inhibits"},
      {"measurement": "aurora ABC phosphorylation", "setting": "P-Aurora ABC", "value": "inhibit"},
      {"measurement": "cytotoxicity in cancer cells", "setting": "cancer cells", "value": "induces cytotoxicity"}
    ]}
  ]
}
